Experimental data published in patent US20240050428A1 (Cullgen (Shanghai), Inc., priority 2020, published 2024).
Like-named read-outs stand apart in the source and are kept apart here.

Experiments:
MV4;11 cells = test: Cell viability assay (CellTiter-Glo) in MV4;11 cells, alone or with gilteritinib; assay type: cell-based; settings: MV4;11 cells, three days, CellTiter-Glo, read-out: MV4
MOLM-13 cells = test: Cell viability assay (CellTiter-Glo) in MOLM-13 cells, alone or with gilteritinib; assay type: cell-based; settings: MOLM-13 cells, three days, CellTiter-Glo
[1] = Homo sapiens, MV4-11, 72 h, compound with gilteritinib 10 nM, 11 IC50 gilteritinib
[2] = Homo sapiens, MOLM-13, 72 h, compound with gilteritinib 20 nM, read-out: MOLM-13 IC50 gilteritinib
[3] = Homo sapiens, MV4-11, 72 h, compound alone (without gilteritinib), 11 IC50
[4] = Homo sapiens, MOLM-13, 72 h, compound alone (without gilteritinib), read-out: MOLM-13 IC50

Structure (SMILES) | IC50 (MV4;11 cells; [1]) | IC50 (MV4;11 cells; compound alone (without gilteritinib), 11 IC50) | IC50 (MOLM-13 cells; [2]) | IC50 (MOLM-13 cells; compound alone (without gilteritinib), read-out: MOLM-13 IC50) | IC50 (MV4;11 cells; [3]) | IC50 (MOLM-13 cells; [4])
CN1CCN(c2cccc(-c3cnn([C@H]4C[C@H](CCCNc5ccc6c(c5)C(=O)N(C5CCC(=O)NC5=O)C6=O)C4)c3)n2)CC1 (stereo partly drawn) [GS-413, 2-(2,6-dioxopiperidin-3-yl)-5-((3-(trans-3-(4-(6-(4-methylpiperazin-1-yl)pyridin-2-yl)-1H-pyrazol-1-yl)cyclobutyl)propyl)amino)isoindoline-1,3-dione] | 100 to 1000 nM | 100 to 1000 nM | 10 to 100 nM | > 1000 nM |  | 
CN1CCN(c2ccc3ncc(-c4cnn([C@H]5C[C@H](CCCNc6ccc7c(c6)C(=O)N(C6CCC(=O)NC6=O)C7=O)C5)c4)nc3c2)CC12CC2 (stereo partly drawn) [GS-414, 2-(2,6-dioxopiperidin-3-yl)-5-((3-(trans-3-(4-(7-(4-methyl-4,7-diazaspiro[2.5]octan-7-yl)quinoxalin-2-yl)-1H-pyrazol-1-yl)cyclobutyl)propyl)amino)isoindoline-1,3-dione] | 10 to 100 nM |  | 10 to 100 nM |  | 100 to 1000 nM | 100 to 1000 nM
O=C1CCC(N2C(=O)c3ccc(NCCC[C@H]4C[C@H](n5cc(-c6cnc7ccc(N8C[C@H]9C[C@@H]8CN9)cc7n6)cn5)C4)cc3C2=O)C(=O)N1 (stereo partly drawn) [GS-415, 5-((3-(trans-3-(4-(7-((1R,4R)-2,5-diazabicyclo[2.2.1]heptan-2-yl)quinoxalin-2-yl)-1H-pyrazol-1-yl)cyclobutyl)propyl)amino)-2-(2,6-dioxopiperidin-3-yl)isoindoline-1,3-dione] | > 1000 nM |  | > 1000 nM |  | > 1000 nM | > 1000 nM
CN1CCN(c2cccc(-c3cnn([C@H]4C[C@H](CNc5ccc6c(c5)C(=O)N(C5CCC(=O)NC5=O)C6=O)C4)c3)n2)CC1 (stereo partly drawn) [GS-416, 2-(2,6-dioxopiperidin-3-yl)-5-(((trans-3-(4-(6-(4-methylpiperazin-1-yl)pyridin-2-yl)-1H-pyrazol-1-yl)cyclobutyl)methyl)amino)isoindoline-1,3-dione] | > 1000 nM |  | 100 to 1000 nM |  | > 1000 nM | > 1000 nM
Cc1nn([C@H]2C[C@H](CCCNc3ccc4c(c3)C(=O)N(C3CCC(=O)NC3=O)C4=O)C2)cc1-c1cnc2c(N3CCN(C)CC3)cccc2n1 (stereo partly drawn) [GS-417, 2-(2,6-dioxopiperidin-3-yl)-5-((3-(trans-3-(3-methyl-4-(5-(4-methylpiperazin-1-yl)quinoxalin-2-yl)-1H-pyrazol-1-yl)cyclobutyl)propyl)amino)isoindoline-1,3-dione] | 10 to 100 nM |  | 10 to 100 nM |  | 100 to 1000 nM | 100 to 1000 nM
Cc1nn([C@H]2C[C@H](CCCNc3ccc4c(c3)C(=O)N(C3CCC(=O)NC3=O)C4=O)C2)cc1-c1cnc2c(C3CCN(C)CC3)cccc2n1 (stereo partly drawn) [GS-418, 2-(2,6-dioxopiperidin-3-yl)-5-((3-(trans-3-(3-methyl-4-(5-(1-methylpiperidin-4-yl)quinoxalin-2-yl)-1H-pyrazol-1-yl)cyclobutyl)propyl)amino)isoindoline-1,3-dione] | < 10 nM |  | < 10 nM |  | 10 to 100 nM | 10 to 100 nM
CN1CCC(c2ccc3nc(-c4cnn([C@H]5C[C@H](CCCNc6ccc7c(c6)C(=O)N(C6CCC(=O)NC6=O)C7=O)C5)c4)cnc3c2)CC1 (stereo partly drawn) [GS-419, 2-(2,6-dioxopiperidin-3-yl)-5-((3-(trans-3-(4-(6-(1-methylpiperidin-4-yl)quinoxalin-2-yl)-1H-pyrazol-1-yl)cyclobutyl)propyl)amino)isoindoline-1,3-dione] | 10 to 100 nM |  | < 10 nM |  | 10 to 100 nM | 10 to 100 nM
O=C1CCC(N2C(=O)c3ccc(NCCC[C@H]4C[C@H](n5cc(-c6cnc7cc(C8CCOCC8)ccc7n6)cn5)C4)cc3C2=O)C(=O)N1 (stereo partly drawn) [GS-420, 2-(2,6-dioxopiperidin-3-yl)-5-((3-(trans-3-(4-(6-(tetrahydro-2H-pyran-4-yl)quinoxalin-2-yl)-1H-pyrazol-1-yl)cyclobutyl)propyl)amino)isoindoline-1,3-dione] | 10 to 100 nM |  | 10 to 100 nM |  | 100 to 1000 nM | 100 to 1000 nM
O=C1CCC(N2C(=O)c3ccc(NCCC[C@H]4C[C@H](n5cc(-c6cnc7cc(C8CCNCC8)ccc7n6)cn5)C4)cc3C2=O)C(=O)N1 (stereo partly drawn) [GS-421, 2-(2,6-dioxopiperidin-3-yl)-5-((3-(trans-3-(4-(6-(piperidin-4-yl)quinoxalin-2-yl)-1H-pyrazol-1-yl)cyclobutyl)propyl)amino)isoindoline-1,3-dione] | < 10 nM |  | < 10 nM |  | 10 to 100 nM | 10 to 100 nM
Cc1nn([C@H]2C[C@@H](CCCNc3ccc4c(c3)C(=O)N(C3CCC(=O)NC3=O)C4=O)C2)cc1-c1cnc2cc(N3CCOCC3)ccc2n1 (stereo partly drawn) [GS-422, 2-(2,6-dioxopiperidin-3-yl)-5-((3-(cis-3-(3-methyl-4-(6-morpholinoquinoxalin-2-yl)-1H-pyrazol-1-yl)cyclobutyl)propyl)amino)isoindoline-1,3-dione] | < 10 nM |  | < 10 nM |  | 10 to 100 nM | 10 to 100 nM
CN1CCN(c2ccnc(-c3cnn([C@H]4C[C@H](CCCNc5ccc6c(c5)C(=O)N(C5CCC(=O)NC5=O)C6=O)C4)c3)n2)CC1 (stereo partly drawn) [GS-423, 2-(2,6-dioxopiperidin-3-yl)-5-((3-(trans-3-(4-(4-(4-methylpiperazin-1-yl)pyrimidin-2-yl)-1H-pyrazol-1-yl)cyclobutyl)propyl)amino)isoindoline-1,3-dione] | 10 to 100 nM |  | 10 to 100 nM |  | 100 to 1000 nM | 100 to 1000 nM
CN1CCN(c2ccnc(-c3cnn([C@H]4C[C@H](CNc5ccc6c(c5)C(=O)N(C5CCC(=O)NC5=O)C6=O)C4)c3)n2)CC1 (stereo partly drawn) [GS-424, 2-(2,6-dioxopiperidin-3-yl)-5-(((trans-3-(4-(4-(4-methylpiperazin-1-yl)pyrimidin-2-yl)-1H-pyrazol-1-yl)cyclobutyl)methyl)amino)isoindoline-1,3-dione] | > 1000 nM |  | 10 to 100 nM |  | > 1000 nM | 100 to 1000 nM
O=C1CCC(N2C(=O)c3ccc(NCCC[C@H]4C[C@@H](n5cc(-c6cnc7cc(N8CCNCC8)ccc7n6)cn5)C4)cc3C2=O)C(=O)N1 (stereo partly drawn) [GS-425, 2-(2,6-dioxopiperidin-3-yl)-5-((3-(cis-3-(4-(6-(piperazin-1-yl)quinoxalin-2-yl)-1H-pyrazol-1-yl)cyclobutyl)propyl)amino)isoindoline-1,3-dione] | 10 to 100 nM |  | 10 to 100 nM |  | > 1000 nM | 100 to 1000 nM
CN1CCC(c2cccc3nc(-c4cnn([C@H]5C[C@H](CCCNc6ccc7c(c6)C(=O)N(C6CCC(=O)NC6=O)C7=O)C5)c4)cnc23)CC1 (stereo partly drawn) [GS-426, 2-(2,6-dioxopiperidin-3-yl)-5-((3-(trans-3-(4-(5-(1-methylpiperidin-4-yl)quinoxalin-2-yl)-1H-pyrazol-1-yl)cyclobutyl)propyl)amino)isoindoline-1,3-dione] | < 10 nM |  | < 10 nM |  | 10 to 100 nM | 10 to 100 nM
O=C1CCC(N2C(=O)c3ccc(NCCC[C@H]4C[C@H](n5cc(-c6cnc7c(C8CCOCC8)cccc7n6)cn5)C4)cc3C2=O)C(=O)N1 (stereo partly drawn) [GS-427, 2-(2,6-dioxopiperidin-3-yl)-5-((3-(trans-3-(4-(5-(tetrahydro-2H-pyran-4-yl)quinoxalin-2-yl)-1H-pyrazol-1-yl)cyclobutyl)propyl)amino)isoindoline-1,3-dione] | < 10 nM |  | < 10 nM |  | 10 to 100 nM | 10 to 100 nM
Cc1nn([C@H]2C[C@@H](CCCNc3ccc4c(c3)C(=O)N(C3CCC(=O)NC3=O)C4=O)C2)cc1-c1cnc2cc(N3CCN(C)CC3)ccc2n1 (stereo partly drawn) [GS-428, 2-(2,6-dioxopiperidin-3-yl)-5-((3-(cis-3-(3-methyl-4-(6-(4-methylpiperazin-1-yl)quinoxalin-2-yl)-1H-pyrazol-1-yl)cyclobutyl)propyl)amino)isoindoline-1,3-dione] | < 10 nM |  | < 10 nM |  | 10 to 100 nM | 10 to 100 nM
O=C1CCC(N2C(=O)c3ccc(NCCC[C@H]4C[C@@H](n5cc(-c6cnc7cc(C8CCNCC8)ccc7n6)cn5)C4)cc3C2=O)C(=O)N1 (stereo partly drawn) [GS-429, 2-(2,6-dioxopiperidin-3-yl)-5-((3-(cis-3-(4-(6-(piperidin-4-yl)quinoxalin-2-yl)-1H-pyrazol-1-yl)cyclobutyl)propyl)amino)isoindoline-1,3-dione] | < 10 nM |  | 10 to 100 nM |  | 100 to 1000 nM | 100 to 1000 nM
O=C1CCC(N2C(=O)c3ccc(NCCC[C@H]4C[C@@H](n5cc(-c6cnc7cc(C8CCOCC8)ccc7n6)cn5)C4)cc3C2=O)C(=O)N1 (stereo partly drawn) [GS-430, 2-(2,6-dioxopiperidin-3-yl)-5-((3-(cis-3-(4-(6-(tetrahydro-2H-pyran-4-yl)quinoxalin-2-yl)-1H-pyrazol-1-yl)cyclobutyl)propyl)amino)isoindoline-1,3-dione] | 10 to 100 nM |  | 10 to 100 nM |  | 100 to 1000 nM | > 1000 nM
O=C1CCC(N2C(=O)c3ccc(NCCC[C@H]4C[C@H](n5cc(-c6cnc7c(C8CCNCC8)cccc7n6)cn5)C4)cc3C2=O)C(=O)N1 (stereo partly drawn) [GS-431, 2-(2,6-dioxopiperidin-3-yl)-5-((3-(trans-3-(4-(5-(piperidin-4-yl)quinoxalin-2-yl)-1H-pyrazol-1-yl)cyclobutyl)propyl)amino)isoindoline-1,3-dione] | < 10 nM |  | < 10 nM |  | < 10 nM | 10 to 100 nM
CN1CCC(c2ccc3nc(-c4cnn([C@H]5C[C@@H](CCCNc6ccc7c(c6)C(=O)N(C6CCC(=O)NC6=O)C7=O)C5)c4)cnc3c2)CC1 (stereo partly drawn) [GS-432, 2-(2,6-dioxopiperidin-3-yl)-5-((3-(cis-3-(4-(6-(1-methylpiperidin-4-yl)quinoxalin-2-yl)-1H-pyrazol-1-yl)cyclobutyl)propyl)amino)isoindoline-1,3-dione] | 10 to 100 nM |  | 10 to 100 nM |  | > 1000 nM | > 1000 nM
